The values that follow come from patent EP0326329B1, “Quinazoline derivatives useful as insecticides” (Dow AgroSciences LLC, priority 1988, dated 1989).

Common to all, as to type: in vivo
In assay [1] the test system is Pseudoperonospora cubensis (downy mildew). Briefly: Greenhouse Test 1, foliar spray fungicide screen (DOWN MDEW), host squash. The note with it: disease control rating, 400 ppm (+++ at 100 ppm).
The subject of assay [2] is Puccinia recondita tritici (leaf rust). Briefly: Greenhouse Test 1, foliar spray fungicide screen (LEAF RUST), host wheat. Conditions: disease control rating, 400 ppm (+++ at 100 ppm).
Assay [3] relates to southern armyworm (Spodopetra eridania Cramer). The experiment in a line: Mite/insect screen, sprayed squash leaves (SAW). The note with it: Spodoptera eridania, percent mortality, read-out: SAW RESULTS %; for mortality at 200 ppm: spray rate 200 ppm; for mortality at 400 ppm: spray rate 400 ppm. As to the method: (§1) The compounds of Examples 1-203 were tested for miticidal and insecticidal activity in the following mite/insect screen.
(§2) Each test compound was formulated by dissolving the compound in acetone/alcohol (50:50) mixture containing 23 g of "TOXIMUL R" (sulfonate/nonionic emulsifier blend) and 13 g of "TOXIMUL S" (sulfonate/nonionic emulsifier blend) per liter. These mixtures were then diluted with water to give the indicated concentrations.
(§3) Other plants in the same treatment pot were left uninfested. The leaves were then sprayed with 5 ml of test solution using a DeVilbiss atomizing sprayer at 10 psi. Both surfaces of the leaves were covered until runoff, and then allowed to dry for one hour. Two uninfested leaves were then excised and placed into a Petri dish containing larval southern armyworm (Spodopetra eridania Cramer).
(§4) After standard exposure periods, percent mortality and phytotoxicity were evaluated. […]

The subject of assay [4] is Botrytis cinerea (gray mold). Briefly: Greenhouse Test 1, foliar spray fungicide screen (GRAY MOLD), host grape berries. The note with it: disease control rating, 400 ppm (+++ at 100 ppm).
In assay [5] the test system is Southern corn rootworm (Diabrotica undecimpuctata howardi Barber). The experiment in a line: Mite/insect screen, soil treatment (CRW). Conditions: Diabrotica, percent mortality, soil treatment, read-out: CRW RESULTS %; for mortality at 12 ppm: CRW rate 12.00 ppm; for mortality at 24 ppm: CRW rate 24.00 ppm. As to the method:
as §1, §2
Activity on Southern corn rootworm (Diabrotica undecimpuctata howardi Barber) was evaluated by adding two ml of tap water, a presoaked corn seed, and 15 g of dry sandy soil to a one ounce plastic container. The soil was treated with 1 mL of test solution containing a pre-determined concentration of test compound. After six to 12 hours of drying, five 2-3 instar corn rootworm larvae were added to the individual cups, which were then capped and held at 23°C.
as §4

Assay [6] has as its system Twospotted spider mites (Tetranychus urticae Koch). The experiment in a line: Mite/insect screen, sprayed squash cotyledons (SM). Conditions: Tetranychus urticae, percent mortality, read-out: SM RESULTS %; for mortality at 200 ppm: spray rate 200 ppm; for mortality at 400 ppm: spray rate 400 ppm. The method, then: as §1, §2, §3, §4
The test system of assay [7] is Pyricularia oryzae (rice blast). The note with it: disease control rating, foliar spray, host rice; 400 ppm (+++ at 100 ppm).
Assay [8] relates to melon aphids (Aphis gossypii Glover). Briefly: Mite/insect screen, sprayed squash cotyledons (MA). The note with it: Aphis gossypii, percent mortality, read-out: MA RESULTS %; for mortality at 200 ppm: spray rate 200 ppm; for mortality at 400 ppm: spray rate 400 ppm. The method, then:
as §1, §2, §3, §4

Assay [9] relates to Erysiphe graminis tritici (powdery mildew). Briefly: Greenhouse Test 1, foliar spray fungicide screen (POWD MDEW), host wheat. The note with it: disease control rating, 400 ppm (+++ at 100 ppm).

For the compound `CC(C)c1ccccc1CCOc1ncnc2ccccc12` [Example 135, 4-[2-[2-(1-methylethyl)phenyl]ethoxy]quinazoline], in assay [1], the “DOWN MDEW” value is reported as “+++ (+++ = 90-100% control at 100 ppm)”. Besides, the “LEAF RUST” value in [2] is on record as “+++ (+++ = 90-100% control at 100 ppm)”. Further, in assay [3], the mortality at 200 ppm was 0% and the mortality at 400 ppm came out at 0%. For the same compound, the “GRAY MOLD” value in assay [4] is “- (- = 0-19% control at 400 ppm)”. For the same compound, in assay [5], the mortality at 12 ppm was 0% and the mortality at 24 ppm came to 0%. In assay [6], the mortality at 200 ppm came out at 0% and the mortality at 400 ppm came out at 0%. In addition, in assay [7], the “RICE BLAST” value is on record as “+++ (+++ = 90-100% control at 100 ppm)”. Further, in [8], the mortality at 200 ppm stood at 0% and the mortality at 400 ppm stood at 0%. Further, the “POWD MDEW” value in assay [9] is “+++ (+++ = 90-100% control at 100 ppm)”.

As for `c1ccc(Oc2cccc(CCOc3ncnc4ccccc34)c2)cc1` [Example 68, 4-[2-(3-phenoxyphenyl)ethoxy]quinazoline], the “DOWN MDEW” value in [1] is given as “+++ (+++ = 90-100% control at 100 ppm)”. Besides, the “LEAF RUST” value in assay [2] is on record as “+++ (+++ = 90-100% control at 100 ppm)”. Moreover, the results for the mortality at 400 ppm in assay [3], in [6] and in [8] were 0%, 90% and 100%, respectively. For the same compound, the “GRAY MOLD” value in assay [4] is “- (- = 0-19% control at 400 ppm)”. Further, the mortality at 24 ppm in [5] turned out to be 0%. Also, in assay [7], the “RICE BLAST” value is “+++ (+++ = 90-100% control at 100 ppm)”. Moreover, the “POWD MDEW” value in [9] is given as “+++ (+++ = 90-100% control at 100 ppm)”.

Regarding `CC(C)c1ccc(CCCCOc2ncnc3ccccc23)cc1` [Example 168, 4-[4-[4-(i-propyl)phenyl]butoxy]quinazoline], the “DOWN MDEW” value in assay [1] is on record as “++ (++ = 90-100% control at 400 ppm)”. For the same compound, the “LEAF RUST” value in assay [2] is “+ (+ = 20-89% control at 400 ppm)”. The mortality at 200 ppm in assay [3], in assay [6] and in [8] was 0% throughout. Moreover, the results for the mortality at 400 ppm in assay [3], in [6] and in assay [8] were 0%, 0% and 80%, respectively. The “GRAY MOLD” value in assay [4] is on record as “- (- = 0-19% control at 400 ppm)”. In assay [5], the mortality at 12 ppm was 0%. Also, in assay [5], the mortality at 24 ppm is 0%. Further, in [7], the “RICE BLAST” value was “+++ (+++ = 90-100% control at 100 ppm)”. Moreover, in assay [9], the “POWD MDEW” value is on record as “+++ (+++ = 90-100% control at 100 ppm)”.

In the case of `Clc1ccc2c(NCCc3cccc(Oc4ccccc4)c3)ncnc2c1` [Example 171, 7-chloro-N-[2-(3-phenoxyphenyl)ethyl]-4-quinazolinamine], the “DOWN MDEW” value in assay [1] is “+++ (+++ = 90-100% control at 100 ppm)”. In addition, in [2], the “LEAF RUST” value is given as “+++ (+++ = 90-100% control at 100 ppm)”. Further, the mortality at 200 ppm in assay [3] is 0%; in [6] it was 20%; in assay [8], 80%. Further, the mortality at 400 ppm in assay [3] was determined as 0%; in assay [6], 40%; in assay [8], 80%. Besides, the “GRAY MOLD” value in assay [4] was “- (- = 0-19% control at 400 ppm)”. Further, in [5], the mortality at 12 ppm was found to be 0%. For the same compound, the mortality at 24 ppm in [5] was 0%. Further, in [7], the “RICE BLAST” value is “+++ (+++ = 90-100% control at 100 ppm)”. Besides, the “POWD MDEW” value in assay [9] is listed as “+++ (+++ = 90-100% control at 100 ppm)”.

`c1ccc2cc(CCNc3nc(NCCc4ccc5ccccc5c4)c4ccccc4n3)ccc2c1` [Example 32, N,N'-bis[2-(2-naphthyl)ethyl]-2,4-quinazolinediamine]: the “DOWN MDEW” value in [1] is recorded as “+ (+ = 20-89% control at 400 ppm)”. For the same compound, the “LEAF RUST” value in [2] is “- (- = 0-19% control at 400 ppm)”. Further, in assay [3], the mortality at 200 ppm is 0% and the mortality at 400 ppm stood at 0%. In [4], the “GRAY MOLD” value is given as “- (- = 0-19% control at 400 ppm)”. Also, in [5], the mortality at 12 ppm turned out to be 0% and the mortality at 24 ppm was 0%. In [6], the mortality at 200 ppm worked out at 0% and the mortality at 400 ppm worked out at 0%. Besides, the “RICE BLAST” value in [7] is given as “- (- = 0-19% control at 400 ppm)”. Also, in assay [8], the mortality at 200 ppm was found to be 0% and the mortality at 400 ppm came out at 0%. Besides, the “POWD MDEW” value in assay [9] was “- (- = 0-19% control at 400 ppm)”.

Take `COc1ccc(CCOc2ncnc3c(F)cccc23)cc1OC` [Example 112, 8-fluoro-4-[2-(3,4-dimethoxyphenyl)ethoxy]quinazoline]: the “DOWN MDEW” value in assay [1] is on record as “+++ (+++ = 90-100% control at 100 ppm)”. In addition, the “LEAF RUST” value in assay [2] is recorded as “+++ (+++ = 90-100% control at 100 ppm)”. Also, in assay [3], the mortality at 200 ppm stood at 0% and the mortality at 400 ppm came out at 0%. Further, the “GRAY MOLD” value in [4] is listed as “- (- = 0-19% control at 400 ppm)”. Besides, in assay [5], the mortality at 12 ppm was 0% and the mortality at 24 ppm stood at 0%. For the same compound, in assay [6], the mortality at 200 ppm amounted to 0% and the mortality at 400 ppm stood at 0%. Further, the “RICE BLAST” value in [7] is recorded as “+++ (+++ = 90-100% control at 100 ppm)”. Moreover, in assay [8], the mortality at 200 ppm was determined as 80% and the mortality at 400 ppm is 0%. For the same compound, the “POWD MDEW” value in [9] is listed as “+ (+ = 20-89% control at 400 ppm)”.

Turning to `Clc1ccc2ncnc(NCCc3ccc(-c4ccccc4)cc3)c2c1` [Example 90, 6-chloro-N-[2-(1,1'-biphenyl)-4-ylethyl]-4-quinazolinamine], in [1], the “DOWN MDEW” value is “+++ (+++ = 90-100% control at 100 ppm)”. Moreover, the “LEAF RUST” value in assay [2] is on record as “+ (+ = 20-89% control at 400 ppm)”. Moreover, the mortality at 200 ppm in assay [3] worked out at 0%; in assay [6], 100%; in assay [8], 80%. The results for the mortality at 400 ppm in [3], in assay [6] and in [8] were 100%, 0% and 0%, respectively. The “GRAY MOLD” value in assay [4] is listed as “- (- = 0-19% control at 400 ppm)”. Moreover, in [5], the mortality at 12 ppm amounted to 0%. Also, the mortality at 24 ppm in assay [5] worked out at 0%. Further, the “RICE BLAST” value in assay [7] is given as “+ (+ = 20-89% control at 400 ppm)”. Moreover, the “POWD MDEW” value in [9] is “+ (+ = 20-89% control at 400 ppm)”.

For `C=CC(CCOc1ncnc2ccccc12)CCc1ccccc1` (stereo not shown) [Example 130, 4-[3-ethenyl-5-phenyl-pentyloxy]quinazoline], in assay [1], the “DOWN MDEW” value is “- (- = 0-19% control at 400 ppm)”. For the same compound, in assay [2], the “LEAF RUST” value was “- (- = 0-19% control at 400 ppm)”. Also, the values for the mortality at 200 ppm in assay [3], in assay [6] and in assay [8] were 0%, 80% and 80%, respectively. Also, the mortality at 400 ppm amounted to 0% in assay [3], 70% in [6] and 100% in assay [8]. Also, in assay [4], the “GRAY MOLD” value is “- (- = 0-19% control at 400 ppm)”. For the same compound, in assay [5], the mortality at 12 ppm stood at 0%. Also, the mortality at 24 ppm in [5] is 0%. Further, the “RICE BLAST” value in assay [7] was “- (- = 0-19% control at 400 ppm)”. The “POWD MDEW” value in assay [9] was “+ (+ = 20-89% control at 400 ppm)”.

Turning to `Cc1cccc2c(OCCc3ccc(C(C)(C)C)cc3)ncnc12` [Example 139, 8-methyl-4-[2-[4-(1,1-dimethylethyl)phenyl]ethoxy]quinazoline], the “DOWN MDEW” value in assay [1] is given as “++ (++ = 90-100% control at 400 ppm)”. In addition, the “LEAF RUST” value in [2] is recorded as “+ (+ = 20-89% control at 400 ppm)”. The mortality at 200 ppm stood at 0% in assay [3] and 30% in assay [8]. The mortality at 400 ppm was found to be 0% in [3], 100% in assay [6] and 0% in assay [8]. Moreover, the “GRAY MOLD” value in [4] is listed as “- (- = 0-19% control at 400 ppm)”. Besides, in assay [5], the mortality at 12 ppm worked out at 0%. In assay [5], the mortality at 24 ppm came to 0%. Also, the “RICE BLAST” value in assay [7] is recorded as “+++ (+++ = 90-100% control at 100 ppm)”. Further, the “POWD MDEW” value in assay [9] is given as “+ (+ = 20-89% control at 400 ppm)”.

Consider `COc1ccccc1CCOc1ncnc2ccccc12` [Example 14, 4-[2-(2-methoxyphenyl)ethoxy]quinazoline], for which the “DOWN MDEW” value in [1] was “++ (++ = 90-100% control at 400 ppm)”. Besides, the “LEAF RUST” value in assay [2] is recorded as “+ (+ = 20-89% control at 400 ppm)”. Besides, the mortality at 400 ppm in assay [3], in assay [6] and in assay [8] was 0% each time. Further, the “GRAY MOLD” value in assay [4] is “- (- = 0-19% control at 400 ppm)”. Besides, the mortality at 24 ppm in assay [5] came to 0%. The “RICE BLAST” value in [7] is “+ (+ = 20-89% control at 400 ppm)”. Further, the “POWD MDEW” value in assay [9] is on record as “+ (+ = 20-89% control at 400 ppm)”.
